Measurements taken from US20120302530A1, “23-HYDROXY-BETULINIC ACID DERIVATIVES, PREPARATION METHODS AND USES THEREOF” (priority 2009, published 2012).

Tests used:
[1] = tested on: normal human epithelium of mammary gland (MCF-10a); assay: MTT cytotoxicity, normal cell strain; type: cell-based; settings: for EC50: Homo sapiens, Normal Mammary Gland Epithelial Cell, 72 hours, MTT; for sensitivity of normal cells to the compounds: concentration up to 30 μm, cells can still grow well
[2] = tested on: normal mice fibroblast (MEF); assay: MTT cytotoxicity, normal cell strain; type: cell-based, mouse; settings: for EC50: Normal Mouse Fibroblast, 72 hours, MTT; for sensitivity of normal cells to the compounds: concentration up to 30 μm, cells can still grow well
[3] = tested on: HIV-1IIIB; assay: Inhibition of HIV-1IIIB induced syncytium formation in C8166 cells; type: cell-based; settings: for therapeutic index TI: HIV-1IIIB syncytium, C8166, TI=IC50/EC50; for EC50: Human immunodeficiency virus 1, HIV-1IIIB, C8166 cells, third day after infection
Source text: (3) The inhibition effects of compounds zhangnan-5, zhangnan-7 and zhangnan-8 to virus HIV-1IIIB inducing C8166 cell to form syncytium: (see JIANG, Haiou; WANG, Xu; L I, Rurun; CHEN, Dagang; B I, Kunlong, Experimental Research on Recipe Sanhuangsan Capsule for Resisting AIDS virus in Vitro, [J]. Shandong Journal of Traditional Chinese medicine, 2005.8 (1):21-26).
The test sample is double diluted with culture medium on the 96-hole flat culture plate. There are 8 dilutions in total. Each hole 100 ul has 2 duplicate holes. In addition, there are positive control group, cell control group and virus control group. 80 ul C8166 cell of 4×10^5/ml is added into each hole, and then 20 ul virus HIV-1IIIB supernatant is added into each hole. The final volume of each hole is 200 ul. The sample is placed in incubator of 370C, 5% CO2 for cultivation. […] Under the inverted microscope, the number of syncytium formed by virus HIV-1IIIB inducing C8166 cell is counted. […] The following formula is used to calculate the inhibition ratio of the sample to syncytium.
Inhibition ratio formed by syncytium (%)=(1−experimental hole syncytium number/control hole syncytium number)×100%

[4] = tested on: HIV-1Ada-M; assay: ELISA of HIV-1Ada-M p24 antigen expression in PBMC; type: cell-based; settings: for therapeutic index TI: HIV-1Ada-M p24, PBMC, TI=IC50/EC50; for EC50: Human immunodeficiency virus 1, HIV-1Ada-M, PBMC, 7th day, ELISA, read-out: EC50, inhibition of p24 antigen expression
Source text: (4) Quantitative Enzyme Linked Immunoadsorbent method (EIISA) detecting inhibiting effects of compounds to virus HIV-1Ada-Mp24 expression: (see JIANG, Haiou; WANG, Xu; L I, Rurun; CHEN, Dagang; B I, Kunlong, Experimental Research on Recipe Sanhuangsan Capsule Resisting AIDS Virus in Vitro, [J], Shandong Journal of Traditional Chinese medicine, 2005.8 (1):21-26).
Multi-heads sample injector is used to conduct triple dilution to the sample on the 96-hole culture plate. There are 6 dilutions, in which each dilution has 3 duplicate holes, and each hole is 100 ul. […] On the 96-hole flat culture plate, each hole is added with 25 ul virus stock solution containing 1000˜5000 pg/well P24 antigen, which is sufficiently blended. 75 ul mononuclear cell PBMC suspension liquid is added (3×10^5 cell numbers/hole). Upon placing in incubator of 37° C., 5% CO2 to the third day, 100 ul of culture medium is added to each hole. On the 7th day, cell culture supernatant is collected for p24 antigen test. According to p24 kit description, ELISA method is used to measure the virus HIV-1 p24 antigen concentration of each sample cell culture hole supernatant. The following formula is used to calculate the inhibition ratio of sample to virus.
Inhibition ratio of sample to virus p24 antigen (%)=(1−experimental hole OD value/cell+virus control hole OD value)×100%. Reed and Mueneh method is used to calculate EC50 of the test sample, and to further calculate the therapeutic index (TI) (TI=IC50/EC50). […] The positive control SCH-C, 23-hydroxyl-betulinic acid, compounds zhangnan-5, zhangnan-7 and zhangnan-8 all reach an inhibition ratio above 50% within the tested range. The positive control SCH-C inhibits HIV-1Ada-M p24 antigen expression. […] In addition, the inhibition effect to HIV-1Ada-M has significant dose-effect relationship with its concentration.

[5] = Pharmacokinetics of zhangnan-5 in mice; type: in vivo; settings: both sexes, BlebC, mouse, oral, 100 mg/kg single dose, plasma, average +/− standard deviation
Experimental: (5) Pharmacokinetics research of the compound zhangnan-5 in mice body: (see Singh S S, Shah H, Gupta S, Jain M, Sharma K, Thakkar P, Shah R. Liquid chromatography—electrospray ionisation mass spectrometry method for the determination of escitalopram in human plasma and its application in bioequivalence study. J Chromatogr B Analyt Technol Biomed Life Sci. 2004 Nov. 25; 811 (2):209-15).
Four 8-week old BlebC mice (two male and two female) are used, feeding with the compound zhangnan-5 of 100 mg/kg for single dose. At 0.5, 1, 3, 6, 12, 24, 48, and 72 hours upon mouth feeding the drug, blood is collected via vena ophthalmica and blood plasma is made, to determine the plasma concentration of the given compound zhangnan-5.

[6] = Side effects in the xenograft studies; settings: tumor-bearing nude mice, 30 mg/kg oral
Source text: (7) Drug administration of human tumor xenograft model and nude mice tumor transplantation model: (see Harrison S D Jr; Growth of human tumor cells in athymic mice; J Natl Cancer Inst. 1991 Oct. 16; 83 (20): 1509).
T cell deficiency nude mice (nu/nu) (male, 6-week old) are bought from Charles River Lab, and are raised in pathogen-free environment according to guidelines of animal raising and using committee of university. The number of […] LNCaP, NCI-H23, HCT-116, G-361 and U-251 cells are suspended in 0.2 ml HBSS or matrigel (50: 50, v/v), and are subcutaneously vaccinated to the side abdomen region of the mice. When the average diameters of the tumors are 7˜8 mm, the mice having tumor size of 100˜200 mm3 are chosen, and are given with treatment group of compound zhangnan-5 prepared with corn oil and are only given with control group of empty carrier (corn oil), respectively.
In the oral feeding test, the compound zhangnan-5 (30 mg/kg) is dissolved in corn oil. Each day the mice are tube fed with 200 μl drug liquid in single dose (prepared with corn oil, containing 0.75 mg compound zhangnan-5) for 5 times a week and for 3 weeks. The control group is given placebo (corn oil) according to same method. The mice are raised separately, and are allowed to self-help feeding.

Row | Compound | EC50 [1] | sensitivity of normal cells to the compounds [1] | EC50 [2] | sensitivity of normal cells to the compounds [2] | therapeutic index TI [3] | EC50 [3] | therapeutic index TI [4] | EC50 [4] | Cmax [5] | Tmax [5] | half-life ([5]; read-out: T½ (converted)) | side effects, including changes in weight [6]
1 | C=C(C)C1CCC2(C(=O)O)CCC3(C)C(CCC4C5(C)CCC(=O)C(C)(CO)C5CCC43C)C12 (stereo not shown) [zhangnan-5] | > 30000 nM | not sensitive | > 30000 nM | not sensitive | 4.6 | 500 ± 70 nM | 3.4 | 700 ± 190 nM | 65 µM | 1.42 h | 11.5 h | no obvious side effects have been found
2 | CC(C)C1CCC2(C(=O)O)CCC3(C)C(CCC4C5(C)CCC(=O)C(C)(CO)C5CCC43C)C12 (stereo not shown) [zhangnan-7] | > 30000 nM | not sensitive | > 30000 nM | not sensitive | 13158 | 1.9 ± 0.2 nM | 9923 | 2.6 ± 0.5 nM |  |  |  | 
3 | CC(C)C1CCC2(C(=O)O)CCC3(C)C(CCC4C5(C)CCC(O)C(C)(CO)C5CCC43C)C12 (stereo not shown) [zhangnan-8, 23-hydroxyl-dihydrobetulinic acid] | > 30000 nM | not sensitive | > 30000 nM | not sensitive | 9.4 | 1100 ± 90 nM | 7.3 | 1600 ± 230 nM |  |  |  | 
